Source: PubChem BioAssay (NCI)
Where “and” joins values, the source holds several entries; their conditions need not be identical. Identical values can stand only once.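 Dose response: 5 concentrations. Exposure: 48 h. Format: 96-well plates. Endpoint: linear interpolation; highest concentration if not reached. The concentration for 50% growth inhibition is given as GI50. The concentration for full growth arrest is given as TGI.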

Columns and labels:
Test in all cases: growth of human tumour cells (NCI), 48 h
[1] = test system: RXF 393 renal
[2] = test system: NCI-H460 lung
[3] = test system: SNB-19 CNS
[4] = test system: HCT-15 colon
[5] = test system: IGROV1 ovarian
[6] = test system: MOLT-4 leukemia
[7] = test system: KM12 colon
[8] = test system: UACC-257 melanoma
[9] = test system: TK-10 renal
[10] = test system: SR leukemia

Compound: CCC1c2cc3n(c(=O)c2COC1O)Cc1c-3nc2ccccc2c1Cl (configuration not stated)
- TGI [1]: > 100 µM
- TGI [2]: > 100 µM
- TGI [3]: > 100 µM
- TGI [4]: > 100 µM
- TGI [5]: > 100 µM
- TGI [6]: > 73 µM
- TGI [7]: > 100 µM
- TGI [8]: > 100 µM
- TGI [9]: > 100 µM

Compound: COc1cc(/C=C/C(=O)c2c(C)nc3ccccc3c2C)ccc1OCCCCOc1cc2c(cc1OC)C(=O)N1CCC[C@H]1C=N2
- GI50 [2]: 0.832 µM
- TGI [2]: 2.58 µM
- GI50 [10]: 325 nM
- TGI [10]: > 100 µM
- GI50 [3]: 0.872 µM
- TGI [3]: 2.57 µM
- GI50 [4]: 1.71 µM
- TGI [4]: 5.18 µM
- GI50 [6]: 325 nM
- TGI [6]: 1.12 µM
- GI50 [7]: 308 nM
- TGI [7]: 0.839 µM
- GI50 [8]: 0.261 µM
- TGI [8]: 0.822 µM
- GI50 [9]: 0.403 µM
- TGI [9]: 3.2 µM

Compound: O=C1NC(=O)C(c2ccccc2)=C1Nc1ccccc1
- GI50 [1]: > 25 µM
- TGI [1]: > 25 µM
- GI50 [2]: > 25 µM
- TGI [2]: > 25 µM
- GI50 [3]: > 25 µM
- TGI [3]: > 25 µM
- GI50 [4]: > 25 µM
- TGI [4]: > 25 µM
- GI50 [5]: > 25 µM
- TGI [5]: > 25 µM
- GI50 [6]: > 25000 nM
- TGI [6]: > 25 µM
- GI50 [7]: > 25000 nM
- TGI [7]: > 25 µM
- GI50 [9]: > 25 µM
- TGI [9]: > 25 µM

Compound: COC(=O)[C@@H](C)C[C@H](Cc1ccccc1)NC(=O)c1csc([C@@H](C[C@H](C(C)C)N(C)C(=O)C2(NC(=O)[C@H]3CCCCN3C)CCC2)OC(C)=O)n1
- GI50 [2]: 0.00549 µM and 0.0057 µM
- TGI [2]: > 25 µM
- GI50 [10]: 0.495 nM and 2.5 nM
- TGI [10]: > 25 µM
- GI50 [3]: 0.00708 µM
- GI50 [4]: 0.0944 µM and 0.0665 µM
- TGI [4]: > 25 µM
- GI50 [5]: 0.000863 µM and 0.0025 µM
- TGI [5]: > 25 µM
- GI50 [6]: 10.7 nM and 7.14 nM
- TGI [6]: > 25 µM
- GI50 [7]: 3.19 nM and 5.22 nM
- TGI [7]: > 25 µM
- GI50 [8]: > 25 µM
- TGI [8]: > 25 µM
- TGI [9]: > 25 µM

Compound: O=[N+]([O-])c1ccc(/C(Cl)=C/c2ccc(/C=C(\Cl)c3ccc([N+](=O)[O-])cc3[N+](=O)[O-])cc2)c([N+](=O)[O-])c1
- TGI [1]: > 100 µM
- TGI [2]: > 100 µM
- TGI [10]: > 100 µM
- TGI [4]: > 100 µM
- TGI [5]: > 100 µM
- TGI [6]: > 100 µM
- TGI [8]: > 100 µM
- TGI [9]: > 100 µM

Compound: C=C1C(=O)c2cc3c(cc2C(c2cc(OC)c(OC)c(OC)c2)[C@@H]1C(=O)O)OCO3 (some centres not stated)
- TGI [1]: > 100 µM
- TGI [2]: > 100 µM
- TGI [4]: > 100 µM
- TGI [5]: > 100 µM
- TGI [6]: > 100 µM
- TGI [7]: > 100 µM
- TGI [8]: > 100 µM
- TGI [9]: > 100 µM

Compound: N#CC(/C(=N/NC(N)=S)C(=O)Nc1cccc(Cl)c1)c1ccccc1 (configuration not stated)
- TGI [2]: > 100 µM
- TGI [10]: > 100 µM
- TGI [3]: > 100 µM
- TGI [4]: > 100 µM
- TGI [5]: > 100 µM
- TGI [6]: > 100 µM
- TGI [7]: > 100 µM
- TGI [8]: > 100 µM
- TGI [9]: > 100 µM

Compound: CC(=O)N(CCN1C(=O)c2ccccc2C1=O)CCN1C(=O)c2ccccc2C1=O
- TGI [1]: > 100 µM
- TGI [2]: > 100 µM
- TGI [10]: > 100 µM
- TGI [3]: > 100 µM
- TGI [4]: > 100 µM
- TGI [6]: > 100 µM
- TGI [7]: > 100 µM
- TGI [8]: > 100 µM
- TGI [9]: > 100 µM

Compound: CN(CSc1ccc(Cl)cc1)c1ccc(CSc2ccc(Cl)cc2)cc1
- GI50 [1]: 8.28 µM
- TGI [1]: 23.6 µM
- GI50 [2]: 3.65 µM
- TGI [2]: 15.6 µM
- GI50 [10]: 1770 nM
- TGI [10]: 7.58 µM
- GI50 [3]: 9.14 µM
- TGI [3]: 23.2 µM
- GI50 [4]: 5.18 µM
- TGI [4]: 22.2 µM
- GI50 [6]: 2660 nM
- TGI [6]: > 100 µM
- GI50 [7]: 3240 nM
- TGI [7]: 15.1 µM
- GI50 [8]: 10.3 µM
- TGI [8]: 34.8 µM
- GI50 [9]: 11.5 µM
- TGI [9]: 31.7 µM

Compound: COC(=O)c1nc(C(=O)OC)c2c([nH]c3ccccc32)c1C(=O)OC
- TGI [1]: > 100 µM
- TGI [2]: > 100 µM
- TGI [10]: > 100 µM
- TGI [4]: > 100 µM
- TGI [5]: > 100 µM
- TGI [6]: > 100 µM
- TGI [7]: > 100 µM
- TGI [8]: > 100 µM
- TGI [9]: > 100 µM

Compound: COc1ccccc1NC(=O)C(=O)Cc1cnc2ccccc2n1
- TGI [1]: > 100 µM
- TGI [2]: > 100 µM
- TGI [10]: > 100 µM
- TGI [3]: > 100 µM
- TGI [4]: > 100 µM
- TGI [6]: > 100 µM
- TGI [7]: > 100 µM
- TGI [8]: > 100 µM

Compound: Cc1ccc(NC(=O)/C(=N\NC(N)=S)C(C#N)c2ccccc2C)cc1C (configuration not stated)
- TGI [2]: > 100 µM
- TGI [10]: > 100 µM
- TGI [3]: > 100 µM
- TGI [4]: > 100 µM
- TGI [5]: > 100 µM
- TGI [6]: > 100 µM
- TGI [7]: > 100 µM
- TGI [8]: > 100 µM
- TGI [9]: > 100 µM

Compound: c1ccc(-c2cn(-c3ccccc3)c(-c3ccccc3)n2)cc1
- GI50 [1]: 17.5 µM
- TGI [1]: 33.9 µM
- GI50 [2]: 13.8 µM
- TGI [2]: 29.7 µM
- GI50 [3]: 11.5 µM
- TGI [3]: 23.9 µM
- GI50 [4]: 3.84 µM
- TGI [4]: 17.8 µM
- GI50 [5]: 11.9 µM
- TGI [5]: 25.2 µM
- GI50 [6]: 3160 nM
- TGI [6]: > 100 µM
- GI50 [7]: 2190 nM
- TGI [7]: 4.67 µM
- GI50 [8]: 13.4 µM
- TGI [8]: 26.1 µM
- GI50 [9]: 14.7 µM
- TGI [9]: 30.9 µM

Compound: O=C1NC(=O)C2C1C1C=C3c4ccccc4N(c4ccccc4)C32[C@H]2C(=O)NC(=O)[C@@H]12 (some centres not stated)
- TGI [2]: > 100 µM
- TGI [3]: > 100 µM
- TGI [4]: > 100 µM
- TGI [5]: > 100 µM
- TGI [6]: > 100 µM
- TGI [7]: > 100 µM
- TGI [8]: > 100 µM
- TGI [9]: > 100 µM

Compound: C=C1c2[nH]c3ccccc3c2CC(C(=O)O)N1C(O)c1ccc(S(=O)(=O)O)cc1 (configuration not stated)
- TGI [1]: > 100 µM
- TGI [2]: > 100 µM
- TGI [10]: > 100 µM
- TGI [3]: > 100 µM
- TGI [6]: > 100 µM
- TGI [7]: > 100 µM
- TGI [8]: > 100 µM
- TGI [9]: > 100 µM

Compound: COC1=CC(=O)OC(/C=C(C)/C=C/C2=C(C)CCCC2(C)C)C1 (configuration not stated)
- TGI [1]: > 100 µM
- TGI [2]: > 100 µM
- TGI [10]: > 100 µM
- TGI [3]: > 100 µM
- TGI [5]: > 100 µM
- TGI [6]: > 100 µM
- TGI [7]: > 100 µM
- TGI [8]: > 100 µM
- TGI [9]: > 100 µM

Compound: N#Cc1ccc(C(C2C(=O)NC(=O)NC2=O)C2C(=O)NC(=O)NC2=O)cc1
- TGI [2]: > 100 µM
- TGI [10]: > 100 µM
- TGI [3]: > 100 µM
- TGI [4]: > 100 µM
- TGI [5]: > 100 µM
- TGI [6]: > 100 µM
- TGI [7]: > 100 µM
- TGI [8]: > 100 µM
- TGI [9]: > 100 µM

Compound: N#Cc1c2ccccc2c2nnc3ccccc3n12
- GI50 [2]: 31.9 µM
- TGI [2]: > 100 µM
- GI50 [10]: 32700 nM
- TGI [10]: > 100 µM
- GI50 [3]: 41.1 µM
- TGI [3]: > 100 µM
- GI50 [4]: 21.5 µM
- TGI [4]: > 100 µM
- GI50 [5]: 19.3 µM
- TGI [5]: 92.2 µM
- GI50 [6]: 47100 nM
- TGI [6]: > 100 µM
- GI50 [7]: 48700 nM
- TGI [7]: > 100 µM
- GI50 [9]: 31.7 µM
- TGI [9]: > 100 µM

Compound: CC(C)(CN1CCCCC1)C(=O)CC(SCCN)c1ccc(Cl)cc1 (configuration not stated)
- TGI [1]: 5.94 µM
- TGI [2]: 5.43 µM
- TGI [3]: 4.54 µM
- TGI [4]: 4.53 µM
- TGI [5]: 8.48 µM
- TGI [6]: 4.72 µM
- TGI [7]: 5.23 µM
- TGI [8]: 7.41 µM
- TGI [9]: 5.19 µM
